Values of other authors in paper PMC3526234 (Diabetes Care, 2012).

Tested on: patients with diabetic gastroparesis
Settings: intravenous erythromycin, 10 patients with diabetic gastroparesis

For `CC[C@H]1OC(=O)[C@H](C)[C@@H](O[C@H]2C[C@@](C)(OC)[C@@H](O)[C@H](C)O2)[C@H](C)[C@@H](O[C@@H]2O[C@H](C)C[C@H](N(C)C)[C@H]2O)[C@](C)(O)C[C@@H](C)C(=O)[C@H](C)[C@@H](O)[C@]1(C)O` [erythromycin], the “estimated effect relative to placebo on percent retained at 60 min” value is listed as 75%.
